Test results published in DBAASP.
Values after ≈ are worked out from the molar mass of the structure shown.

Legend:
Test in all cases: ≥ marks a high value that may be exact or a test limit, other limits are often not marked, values filed in µg/mL are converted to µM
[1] = system: Escherichia coli
[2] = system: Staphylococcus aureus
[3] = system: Staphylococcus aureus MR
[4] = system: Pseudomonas aeruginosa
[5] = system: Escherichia coli ATCC 25726
[6] = system: Staphylococcus aureus ATCC 25923
[7] = system: Pseudomonas aeruginosa CMCCB 10104
[8] = system: Escherichia coli ATCC 25922
[9] = system: Candida albicans ATCC 2002
[10] = system: Bacillus cereus
[11] = system: Staphylococcus epidermidis
[12] = system: Pasteurella multocida
[13] = system: Streptococcus uberis
[14] = system: Listeria innocua
[15] = system: Leuconostoc lactis
[16] = system: Micrococcus luteus
[17] = system: Staphylococcus aureus ATCC 2592

Row | MIC [1] [µM] | MIC [2] [µM] | MIC [6] [µM] | MIC [7] [µM] | MIC [8] [µM] | MIC [9] [µM] | SMILES | other results
1 | 25.8 | 25.8 | – | – | – | – | CC[C@H](C)[C@H](NC(=O)[C@H](C)NC(=O)[C@H](CC(C)C)NC(=O)[C@H](CS)NC(=O)[C@H](Cc1cnc[nH]1)NC(=O)[C@H](C)N)C(=O)NCC(=O)N[C@@H](CCCN=C(N)N)C(=O)N[C@@H](CCCCN)C(N)=O [AHCLAIGRK] | MIC [3]: ≥ 51.6 µM; MIC [4]: > 51.6 µM
2 | – | – | 36.7 (≈ 125 µg/mL) | – | – | – | CC[C@H](C)[C@H](NC(=O)[C@H](CCSC)NC(=O)[C@H](C)NC(=O)[C@H](CC(N)=O)NC(=O)[C@H](CCCCN)NC(=O)[C@H](Cc1ccccc1)NC(=O)[C@H](CO)NC(=O)[C@H](CC(=O)O)NC(=O)[C@H](CC(C)C)NC(=O)[C@H](Cc1ccccc1)NC(=O)CN)C(=O)NCC(=O)N[C@H](C(=O)N[C@@H](C)C(=O)N[C@@H](CCCCN)C(=O)N[C@@H](CO)C(=O)N[C@H](C(=O)NCC(=O)N[C@@H](CCCCN)C(=O)N[C@H](C(=O)N[C@@H](C)C(=O)N[C@@H](CC(C)C)C(=O)N[C@@H](CO)C(=O)N[C@H](C(=O)N[C@@H](CC(C)C)C(=O)N[C@@H](C)C(=O)N[C@H]1CSSC[C@@H](C(=O)O)NC(=O)[C@H](CO)NC(=O)[C@H](CCCCN)NC(=O)[C@H](CC(=O)O)NC(=O)[C@H]([C@@H](C)CC)NC(=O)[C@H](CCCCN)NC1=O)[C@@H](C)O)[C@@H](C)O)C(C)C)C(C)C [GFLDSFKNAMIGVAKSVGKTALSTLACKIDKSC] | MIC [5]: 18.4 µM (≈ 62.5 µg/mL)
3 | – | – | 1.74 (≈ 3.6 µg/mL) | 6.84 (≈ 14.2 µg/mL) | 3.47 (≈ 7.19 µg/mL) | 3.47 (≈ 7.19 µg/mL) | CC[C@H](C)[C@H](NC(=O)CN)C(=O)N[C@@H](CC(C)C)C(=O)N[C@@H](CO)C(=O)NCC(=O)N[C@H](C(=O)N[C@@H](CC(C)C)C(=O)NCC(=O)N[C@@H](CCSC)C(=O)NCC(=O)N[C@@H](CCCCN)C(=O)N[C@@H](CCCCN)C(=O)N[C@H](C(=O)N[C@H](C(=O)N[C@H]1CSSC[C@@H](C(=O)O)NC(=O)[C@H](CC(C)C)NC(=O)CNC(=O)[C@H](CCCN=C(N)N)NC(=O)[C@H](CC(C)C)NC(=O)CNC1=O)C(C)C)[C@@H](C)CC)C(C)C [GILSGVLGMGKKIVCGLRGLC] | –
4 | – | – | 1.55 (≈ 4.2 µg/mL) | 0.773 (≈ 2.1 µg/mL) | 1.55 (≈ 4.2 µg/mL) | 0.773 (≈ 2.1 µg/mL) | CC[C@H](C)[C@H](NC(=O)CNC(=O)[C@H](CCCCN)NC(=O)CNC(=O)[C@H](C)NC(=O)[C@H](Cc1ccccc1)NC(=O)[C@H](CCCCN)NC(=O)[C@H](CO)NC(=O)[C@H](Cc1ccccc1)NC(=O)[C@H](CC(C)C)NC(=O)CN)C(=O)N[C@@H](CCCCN)C(=O)N[C@@H](CC(N)=O)C(=O)N[C@@H](Cc1ccccc1)C(=O)N[C@@H](CC(C)C)C(=O)N[C@@H](CC(N)=O)C(=O)N[C@@H](CCCCN)C(=O)NCC(=O)N[C@H](C(=O)N[C@@H](CCCCN)C(=O)N[C@@H](Cc1cnc[nH]1)C(=O)N[C@H](C(=O)NCC(=O)N[C@@H](CCCCN)C(=O)N[C@@H](CCC(=O)O)C(=O)O)[C@@H](C)CC)C(C)C [GLFSKFAGKGIKNFLNKGVKHIGKE] | –
5 | > 39.3 | 9.82 (≈ 25 µg/mL) | – | – | – | – | CC[C@H](C)[C@H](NC(=O)[C@@H](NC(=O)CNC(=O)[C@@H](NC(=O)[C@@H](NC(=O)[C@H](Cc1cnc[nH]1)NC(=O)[C@@H]1CCCN1C(=O)[C@H](CC(C)C)NC(=O)[C@@H](NC(=O)[C@H](Cc1cnc[nH]1)NC(=O)[C@H](CCCCN)NC(=O)[C@H](C)NC(=O)[C@@H](NC(=O)[C@H](CO)NC(=O)CNC(=O)[C@H](CC(C)C)NC(=O)[C@@H](NC(=O)[C@H](CO)NC(=O)[C@H](CC(C)C)NC(=O)[C@H](CC(C)C)NC(=O)CN)C(C)C)C(C)C)C(C)C)C(C)C)C(C)C)C(C)C)C(=O)N[C@@H](C)C(=O)N[C@@H](CCC(=O)O)C(=O)N[C@@H](Cc1cnc[nH]1)C(=O)N[C@@H](CC(C)C)C(N)=O [GLLSVLGSVAKHVLPHVVGVIAEHL] | MIC [10]: ≥ 39.3 µM; MIC [11]: ≥ 39.3 µM; MIC [12]: 19.6 µM (≈ 50 µg/mL); MIC [13]: 9.82 µM (≈ 25 µg/mL); MIC [14]: 9.82 µM (≈ 25 µg/mL); MIC [15]: 4.91 µM (≈ 12.5 µg/mL); MIC [16]: 4.91 µM (≈ 12.5 µg/mL)
6 | > 56.2 | 14.1 (≈ 25 µg/mL) | – | – | – | – | CC[C@H](C)[C@H](NC(=O)[C@@H](NC(=O)CN)C(C)C)C(=O)N[C@@H](CC(=O)O)C(=O)N[C@@H](C)C(=O)N[C@@H](C)C(=O)N[C@@H](CCCCN)C(=O)N[C@@H](CCCCN)C(=O)N[C@H](C(=O)N[C@H](C(=O)N[C@@H](CC(N)=O)C(=O)N[C@H](C(=O)N[C@@H](CC(C)C)C(=O)N[C@@H](CCCCN)C(=O)N[C@@H](CC(N)=O)C(=O)N[C@@H](CC(C)C)C(=O)N1CCC[C@H]1C(N)=O)C(C)C)C(C)C)C(C)C [GVIDAAKKVVNVLKNLP] | MIC [10]: 14.1 µM (≈ 25 µg/mL); MIC [11]: 7.03 µM (≈ 12.5 µg/mL); MIC [12]: ≥ 56.2 µM; MIC [13]: 7.03 µM (≈ 12.5 µg/mL); MIC [14]: 28.1 µM (≈ 50 µg/mL); MIC [15]: 1.69 µM (≈ 3 µg/mL); MIC [16]: 14.1 µM (≈ 25 µg/mL)
7 | – | – | – | 6.12 (≈ 12 µg/mL) | 6.12 (≈ 12 µg/mL) | 3.06 (≈ 6 µg/mL) | CC[C@H](C)[C@H](N)C(=O)N[C@@H](CC(C)C)C(=O)NCC(=O)N1CCC[C@H]1C(=O)N[C@H](C(=O)N[C@H](C(=O)N[C@@H](CO)C(=O)N[C@@H](CCCCN)C(=O)N[C@H](C(=O)NCC(=O)NCC(=O)N[C@H](C(=O)N[C@@H](CC(C)C)C(=O)NCC(=O)NCC(=O)N[C@@H](CC(C)C)C(=O)N[C@@H](CC(C)C)C(=O)N[C@@H](CCCCN)C(=O)N[C@@H](CC(N)=O)C(=O)N[C@@H](CC(C)C)C(N)=O)C(C)C)[C@@H](C)CC)[C@@H](C)CC)C(C)C [ILGPVISKIGGVLGGLLKNL] | MIC [17]: 3.06 µM (≈ 6 µg/mL)
8 | – | – | > 28.5 | 28.5 (≈ 99.9 µg/mL) | > 28.5 | 28.5 (≈ 99.9 µg/mL) | CC(C)C[C@@H]1NC(=O)[C@H](CCCN=C(N)N)NC(=O)[C@H](CC(C)C)NC(=O)[C@H](CC(C)C)NC(=O)[C@H](Cc2c[nH]c3ccccc23)NC(=O)[C@H](C(C)C)NC(=O)[C@H](Cc2ccc(O)cc2)NC(=O)[C@H](CC(C)C)NC(=O)[C@H](C(C)C)NC(=O)[C@H](CCC(N)=O)NC(=O)[C@@H](NC(=O)[C@H](Cc2ccccc2)NC(=O)[C@H](CC(N)=O)NC(=O)[C@H](CC(N)=O)NC(=O)[C@@H](N)CCCCN)CSSC[C@@H](C(=O)N[C@@H](Cc2ccccc2)C(=O)N[C@H](C(=O)N[C@@H](CCCCN)C(=O)N[C@@H](Cc2ccccc2)C(=O)N[C@@H](CO)C(=O)N[C@@H](CCCCN)C(=O)N[C@@H](CC(=O)O)C(=O)N[C@H](C(=O)N[C@@H](CCC(=O)O)C(=O)N[C@H](C(=O)O)[C@@H](C)O)C(C)C)C(C)C)NC(=O)[C@H](CCC(N)=O)NC(=O)[C@H](CCCCN)NC(=O)CNC1=O [KNNFCQVLYVWLLRLGKQCFVKFSKDVET] | –
9 | – | – | 0.993 (≈ 3.3 µg/mL) | 1.99 (≈ 6.6 µg/mL) | 1.99 (≈ 6.6 µg/mL) | 0.993 (≈ 3.3 µg/mL) | CC[C@H](C)[C@H](NC(=O)[C@H](CC(C)C)NC(=O)[C@H](CC(C)C)NC(=O)[C@H](CC(=O)O)NC(=O)[C@H](CCCCN)NC(=O)[C@@H](NC(=O)[C@@H](NC(=O)CNC(=O)[C@H](CCSC)NC(=O)[C@@H](NC(=O)[C@@H](N)CO)C(C)C)[C@@H](C)O)C(C)C)C(=O)NCC(=O)N[C@@H](C)C(=O)NCC(=O)N[C@@H](CCCCN)C(=O)N[C@@H](CO)C(=O)N[C@@H](C)C(=O)N[C@@H](C)C(=O)N[C@@H](CCC(N)=O)C(=O)N[C@@H](CO)C(=O)N[C@H](C(=O)N[C@@H](CC(C)C)C(=O)N[C@@H](CCCCN)C(=O)N[C@@H](CO)C(=O)N[C@@H](CC(C)C)C(=O)N[C@@H](CO)C(=O)N[C@H]1CSSC[C@@H](C(=O)O)NC(=O)[C@H](CC(=O)O)NC(=O)[C@H](CC(N)=O)NC(=O)[C@H](CO)NC(=O)[C@H](CC(C)C)NC(=O)[C@H](CCCCN)NC1=O)C(C)C [SVMGTVKDLLIGAGKSAAQSVLKSLSCKLSNDC] | –
